Test results published in US20060286547A1, “Time-of-addition assay for identifying anti-viral compounds” (priority 2003, published 2006).

System: HIV-1 (strain 111B)
Test: Time-of-addition assay with luminescent cells in 96- and 384-well plates
Type: cell-based
Conditions: early stages of addition; ATA 5 μM, AMD3100 and T20 1 μM; 96-well and 384-well plates; FIG. 6 and FIG. 7
Experimental: A MT4 cell line was used In the present example expressing a luciferase reporter gene under the control of a HIV-1-LTR promoter element. Cells were counted and a cell suspension of 500.000 ml or 350.000 ml was made for use in 96-well or 384 wells, respectively. The cells were centrifuged for 10 minutes at 400 g. Subsequently, cells were infected with at high multiplicity of infection with HIV-1 (strain 111B) at a host cell/virus titer of 1/1. Unabsorbed virus was removed by two washing steps in order to synchronize the infection. After the second washing step, cells were resuspended and the suspensions were distributed in the wells of a micro-titer plate in an amount of 95 μl or 36 μl in a 96-well or a 384 well format, respectively. At predefined time points 5 μl (96 well) and 4 μl (384 well) of compound was added. As compounds to be tested, reference compounds having well known mechanisms of action were included in the plates. […]
ATA was used in a concentration of 5 μM; AMD3100, T20 EFV ad SQV were used in a concentration of 1 μM and TMC143205 was used in a concentration of 1 μM. […] 100 μl Luc-lit™ substrate was added to each well and luminescence was monitored by processing the 96- and 384-well plates in a PerkinElmer-Viewlux™ within 30 minutes. HIV replication was quantified by measuring the luciferase signal.

## O=C(O)C1=CC(=C(c2ccc(O)c(C(=O)O)c2)c2ccc(O)c(C(=O)O)c2)C=CC1=O [ATA]
  inhibitory activity as a function of time of addition: strong inhibitory activity

## c1cc(CN2CCCNCCNCCCNCC2)ccc1CN1CCCNCCNCCCNCC1 [AMD3100]
  inhibitory activity as a function of time of addition: strong inhibitory activity
